This data set relates to rodent lifetime carcinogenesis bioassay, tumor incidence TD50. In words: carcinogenic potency in animals, long-term in vivo studies, CPDB compilation (AID 1745844).

The source made the active and inactive calls. The rule behind the calls is not given here.

By TD50 is commonly meant the dose at which the toxic effect under study appears in half of the subjects.

Consider `O=C1c2ccccc2CN2C(=O)c3ccccc3CN12`, for which the TD50 reads like this: (mouse, strain BALB/cLacDp, females, in feed, site: liver, lesion: angioma, dosed 80 weeks, study length 119 weeks) 7130 mg/kg/day; (mouse, strain BALB/cLacDp, females, in feed, site: liver, lesion: angiosarcoma, dosed 80 weeks, study length 119 weeks) 852 mg/kg/day; (mouse, strain BALB/cLacDp, females, in feed, site: liver, lesion: hepatocellular adenoma, dosed 80 weeks, study length 119 weeks) 1150 mg/kg/day; (mouse, strain BALB/cLacDp, females, in feed, site: liver, lesion: hepatocellular carcinoma, dosed 80 weeks, study length 119 weeks) 3540 mg/kg/day; (mouse, strain BALB/cLacDp, females, in feed, site: lung, lesion: several types, types named in the paper, dosed 80 weeks, study length 119 weeks) 269 mg/kg/day (inactive); (mouse, strain BALB/cLacDp, males, in feed, site: liver, lesion: angioma, dosed 80 weeks, study length 119 weeks) 1370 mg/kg/day. Further, the TD50 reads like this: (mouse, strain BALB/cLacDp, males, in feed, site: liver, lesion: angiosarcoma, dosed 80 weeks, study length 119 weeks) 879 mg/kg/day; (mouse, strain BALB/cLacDp, males, in feed, site: lung, lesion: several types, types named in the paper, dosed 80 weeks, study length 119 weeks) 412 mg/kg/day (inactive).
For `C/C=C(\C)C(=O)O[C@@H]1CCN2CC=C(COC(=O)[C@](O)(C(C)C)[C@H](C)O)[C@H]12`, the TD50 is 4.5 mg/kg/day (rat, strain ACI, males, i.p., site: any site (literature study), lesion: several types, types named in the paper, dosed 56 weeks, study length 92 weeks) and 1.91 mg/kg/day (rat, strain ACI, males, i.p., site: liver, lesion: several types, types named in the paper, dosed 56 weeks, study length 92 weeks).
On to `CC[C@H]1CN2CCc3cc(OC)c(OC)cc3[C@@H]2C[C@@H]1C[C@H]1NCCc2cc(OC)c(OC)cc21`, for which the TD50 is, setting by setting: (mouse, strain B6C3F1, females, i.p., site: any site (literature study), lesion: several types, types named in the paper, dosed 40 weeks, study length 78 weeks) 1.2 mg/kg/day; (mouse, strain B6C3F1, females, i.p., site: lung, lesion: alveolar/bronchiolar adenoma + alveolar/bronchiolar carcinoma, dosed 40 weeks, study length 78 weeks) 49.4 mg/kg/day; (mouse, strain B6C3F1, males, i.p., site: any site (literature study), lesion: several types, types named in the paper, dosed 44 weeks, study length 78 weeks) 0.552 mg/kg/day; (mouse, strain B6C3F1, males, i.p., site: liver, lesion: hepatocellular adenoma + hepatocellular carcinoma + neoplastic nodule, dosed 44 weeks, study length 78 weeks) 1.3 mg/kg/day; (mouse, strain B6C3F1, males, i.p., site: lung, lesion: alveolar/bronchiolar adenoma + alveolar/bronchiolar carcinoma, dosed 44 weeks, study length 78 weeks) 1.19 mg/kg/day; (rat, strain Sprague-Dawley, females, i.p., site: any site (literature study), lesion: several types, types named in the paper, dosed 52 weeks, study length 83 weeks) 0.235 mg/kg/day. In addition, the TD50 (rat, strain Sprague-Dawley, males, i.p., site: any site (literature study), lesion: several types, types named in the paper, dosed 52 weeks, study length 83 weeks) came to 0.382 mg/kg/day.
On to `O=C[C@H](NC(=O)N(CCCl)N=O)[C@@H](O)[C@H](O)[C@H](O)CO`, for which the TD50 was 0.108 mg/kg/day (rat, strain Sprague-Dawley, females, i.p., site: any site (literature study), lesion: malignant tumor, dosed 88 weeks, study length 114 weeks); 0.0844 mg/kg/day (rat, strain Sprague-Dawley, females, i.p., site: peritoneal cavity, lesion: several types, types named in the paper, dosed 88 weeks, study length 114 weeks); 0.0521 mg/kg/day (rat, strain Sprague-Dawley, males, i.p., site: any site (literature study), lesion: malignant tumor, dosed 77 weeks, study length 100 weeks); 0.0241 mg/kg/day (rat, strain Sprague-Dawley, males, i.p., site: peritoneal cavity, lesion: several types, types named in the paper, dosed 77 weeks, study length 100 weeks).
As to `CCCCC(CC)COC(=O)CCCCC(=O)OCC(CC)CCCC` (stereo not given), the TD50 reads like this: (mouse, strain B6C3F1, females, in feed, site: liver, lesion: hepatocellular adenoma + hepatocellular carcinoma + neoplastic nodule, dosed 103 weeks, study length 105 weeks) 3840 mg/kg/day; (mouse, strain B6C3F1, females, in feed, site: liver, lesion: hepatocellular adenoma + hepatocellular carcinoma, dosed 103 weeks, study length 105 weeks) 3840 mg/kg/day; (mouse, strain B6C3F1, females, in feed, site: liver, lesion: hepatocellular carcinoma, dosed 103 weeks, study length 105 weeks) 3050 mg/kg/day; (mouse, strain B6C3F1, males, in feed, site: liver, lesion: hepatocellular adenoma + hepatocellular carcinoma + neoplastic nodule, dosed 103 weeks, study length 104 weeks) 5330 mg/kg/day; (mouse, strain B6C3F1, males, in feed, site: liver, lesion: hepatocellular adenoma + hepatocellular carcinoma, dosed 103 weeks, study length 104 weeks) 5330 mg/kg/day; (mouse, strain B6C3F1, males, in feed, site: liver, lesion: hepatocellular adenoma, dosed 103 weeks, study length 104 weeks) 9040 mg/kg/day. For the same compound, the TD50 (mouse, strain B6C3F1, males, in feed, site: lung, lesion: alveolar/bronchiolar adenoma + alveolar/bronchiolar carcinoma, dosed 103 weeks, study length 104 weeks) is 11700 mg/kg/day and the TD50 (rat, strain Fischer 344, females, in feed, site: liver, lesion: hepatocellular adenoma + hepatocellular carcinoma + neoplastic nodule, dosed 103 weeks, study length 105 weeks) is 14500 mg/kg/day. For the same compound, the carcinogen call by setting is: (rat, strain Fischer 344, females, in feed, site: any site (literature study), lesion: several types, types named in the paper, dosed 103 weeks, study length 105 weeks) “negative (inactive)”; (rat, strain Fischer 344, males, in feed, site: any site (literature study), lesion: several types, types named in the paper, dosed 103 weeks, study length 104 weeks) “negative (inactive)”.
As to `CC(=O)O[C@]1(C(C)=O)CC[C@H]2[C@@H]3C=C(Cl)C4=CC(=O)CC[C@]4(C)[C@H]3CC[C@@]21C` (tested in a mixture with another compound), the TD50 runs as follows: (mouse, strain (C3H x RIII)F1 (MTV+), males, in feed, site: mammary tissue, wider than the gland, lesion: one or several types, types not named, dosed 104 weeks, study length 104 weeks) 1.76 mg/kg/day; (mouse, strain C3H (MTV+), females, in feed, site: mammary tissue, wider than the gland, lesion: one or several types, types not named, dosed 104 weeks, study length 104 weeks) 5.98 mg/kg/day; (mouse, strain RIII (MTV+), females, in feed, site: mammary tissue, wider than the gland, lesion: one or several types, types not named, dosed 104 weeks, study length 104 weeks) 2.12 mg/kg/day.
As for `NNCCO`, the TD50 (hamster, strain Syrian Golden, females, in drinking water, site: liver, lesion: hepatoma, dosed 84 weeks, study length 84 weeks) was 148 mg/kg/day (inactive); the TD50 (hamster, strain Syrian Golden, males, in drinking water, site: liver, lesion: hepatoma, dosed 84 weeks, study length 84 weeks) was 84.4 mg/kg/day (inactive); the TD50 (mouse, strain B6AKF1, females, oral dosing, site: any site (literature study), lesion: several types, types named in the paper, dosed 78 weeks, study length 78 weeks) is 5.34 mg/kg/day; the TD50 (mouse, strain B6AKF1, males, oral dosing, site: any site (literature study), lesion: several types, types named in the paper, dosed 78 weeks, study length 78 weeks) is 0.404 mg/kg/day; the TD50 (mouse, strain B6AKF1, males, oral dosing, site: liver, lesion: hepatoma, dosed 78 weeks, study length 78 weeks) is 0.314 mg/kg/day; the TD50 (mouse, strain B6C3F1, females, oral dosing, site: any site (literature study), lesion: several types, types named in the paper, dosed 78 weeks, study length 78 weeks) amounted to 4.77 mg/kg/day. The TD50 (mouse, strain B6C3F1, females, oral dosing, site: liver, lesion: hepatoma, dosed 78 weeks, study length 78 weeks) is 4.77 mg/kg/day; the TD50 (mouse, strain B6C3F1, females, oral dosing, site: lung, lesion: adenoma, dosed 78 weeks, study length 78 weeks) was found to be 4.77 mg/kg/day; the TD50 (mouse, strain B6C3F1, males, oral dosing, site: any site (literature study), lesion: several types, types named in the paper, dosed 78 weeks, study length 78 weeks) turned out to be 0.713 mg/kg/day; the TD50 (mouse, strain B6C3F1, males, oral dosing, site: liver, lesion: hepatoma, dosed 78 weeks, study length 78 weeks) is 0.541 mg/kg/day. Besides, the carcinogen call reads like this: (mouse, strain Swiss, females, in drinking water, site: lung, lesion: one or several types, types not named, dosed 75 weeks, study length 75 weeks) “negative (inactive)”; (mouse, strain Swiss, males, in drinking water, site: liver, lesion: several types, types named in the paper, dosed 75 weeks, study length 75 weeks) “negative (inactive)”; (mouse, strain Swiss, males, in drinking water, site: lung, lesion: one or several types, types not named, dosed 75 weeks, study length 75 weeks) “negative (inactive)”.
Regarding `CC(C)=NO`, the TD50 was 91.5 mg/kg/day (rat, strain MRC-Wistar, females, in drinking water, site: any site (literature study), lesion: several types, types named in the paper, dosed 78 weeks, study length 130 weeks); 408 mg/kg/day (inactive) (rat, strain MRC-Wistar, females, in drinking water, site: liver, lesion: hemangioma, dosed 78 weeks, study length 130 weeks); 127 mg/kg/day (inactive) (rat, strain MRC-Wistar, females, in drinking water, site: liver, lesion: hepatocellular adenoma, dosed 78 weeks, study length 130 weeks); 127 mg/kg/day (inactive) (rat, strain MRC-Wistar, females, in drinking water, site: liver, lesion: several types, types named in the paper, dosed 78 weeks, study length 130 weeks); 12.8 mg/kg/day (rat, strain MRC-Wistar, males, in drinking water, site: any site (literature study), lesion: several types, types named in the paper, dosed 78 weeks, study length 110 weeks); 136 mg/kg/day (rat, strain MRC-Wistar, males, in drinking water, site: liver, lesion: hemangioma, dosed 78 weeks, study length 110 weeks). Moreover, the TD50 by setting is: (rat, strain MRC-Wistar, males, in drinking water, site: liver, lesion: hepatocellular adenoma, dosed 78 weeks, study length 110 weeks) 12.1 mg/kg/day; (rat, strain MRC-Wistar, males, in drinking water, site: liver, lesion: several types, types named in the paper, dosed 78 weeks, study length 110 weeks) 12.1 mg/kg/day (inactive).

The values are drawn from PubChem BioAssay AID1745844 (Carcinogenic Potency Database (CPDB), 2022).
